Measured values reported in patent US20110136108A1, “XBP1(S) Protein Acting as an Adipocyte Differentiation Marker Having a Facility to Regulate Differentiation into Adipocytes, and an Application Therefor” (CATHOLICE UNIVERSITY INDUSTRY ACADEMIC COOPERATION …, priority 2008, published 2011).

Tested on: PPARγ2 mRNA
Test: PPARγ2 mRNA expression during adipocyte differentiation (real-time PCR)
Assay type: cell-based, mouse
Details: SFG-xbp1i cells, 50 μM rosiglitazone in induction medium
Procedure: From the cells subjected to differentiation, total RNA was isolated by chloroform extraction and ethanol precipitation (TRIzol Reagent, Invitrogen, Carlsbad, Calif.). Thereafter, the total RNA was used to synthesize cDNA by RT-PCR (M-MLV reverse transcriptase, Promega, MADISON, Wis.). Real-time PCR was performed using a fluorescent probe of SYBR Green (SYBR Green QPCR Master Mix (2×), TAKARA, JAPAN), with cDNA serving as a template. Relative mRNA expression levels were calculated using a comparative Ct method.
In this regard, XBP1(S) expression-knock-down 3T3-L1 precursor cells (SFG-xbp1i) were induced to differentiate into adipocytes in the presence of 0 or 50 μM rosiglitazone in an induction medium during which the relative expression levels of PPARγ2 mRNA were measured.

CN(CCOc1ccc(CC2SC(=O)NC2=O)cc1)c1ccccn1 (stereo not shown) [rosiglitazone]
expression level of PPARγ2 mRNA relative to absence of rosiglitazone: 20 times
